Results from US20180282323A1, “Mesoionic imidazole derivatives as insecticides” (BAYER CROPSCIENCE AKTIENGESELLSCHAFT, priority 2015, published 2018).
Like-named read-outs stand apart in the source and are kept apart here.

Columns and labels:
Myzus persicae [1] = assay: Myzus persicae oral test; assay type: in vivo; conditions: application rate 20 ppm, oral uptake through parafilm, after 5 days
How it was run: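 Compound dissolved in acetone, diluted with water, then mixed into IPL41 insect medium with sugar in microtitre plates under parafilm. Mixed-population green peach aphids fed through the membrane; % mortality scored after 5 days (100% = all killed).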

Phaedon cochleariae = Phaedon cochleariae spray test; assay type: in vivo; conditions: application rate 500 g/ha, Chinese cabbage leaf discs, larvae, after 7 days
Method: Phaedon cochleariae—Spray Test Solvent: 78.0 parts by weight of acetone • • 1.5 parts by weight of dimethylformamide Emulsifier: alkylaryl polyglycol ether
(§1) To produce a suitable active ingredient formulation, 1 part by weight of active ingredient is dissolved with the stated parts by weight of solvent and made up with water containing an emulsifier concentration of 1000 ppm until the desired concentration is attained. To produce further test concentrations, the formulation is diluted with emulsifier-containing water.
Discs of Chinese cabbage leaves (Brassica pekinensis) are sprayed with an active ingredient formulation of the desired concentration and, after drying, populated with larvae of the mustard beetle (Phaedon cochleariae).
After 7 days, the efficacy in % is determined. 100% means that all the beetle larvae have been killed; 0% means that no beetle larvae have been killed.

[2] = log P by HPLC on reversed-phase column (EEC directive 79/831 Annex V.A8); assay type: physicochemical; conditions: for log p: HPLC on reversed-phase column (footnote a); for log p a): HPLC on reversed-phase column
How it was run: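 Determined per EEC directive 79/831 Annex V.A8 by HPLC on a reversed-phase C18 column at 43° C.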

Diabrotica balteata = Diabrotica balteata spray test; assay type: in vivo; conditions: application rate 160 μg/well, wheat grains with beetle larvae, after 7 days
Method: Diabrotica balteata—Spray Test Solvent: 78 parts by weight of acetone • • 1.5 parts by weight of dimethylformamide Emulsifier: alkylaryl polyglycol ether
as §1
Pre-swollen wheat grains (Triticum aestivum) are incubated in a multiwell plate filled with agar and a little water for one day (5 seed grains per cavity). The germinated wheat grains are sprayed with an active ingredient formulation of the desired concentration. Subsequently, each cavity is infected with 10-20 beetle larvae of Diabrotica balteata.
After 7 days, the efficacy in % is determined. 100% means that all wheat plants have grown as in the untreated, uninfected control; 0% means that no wheat plant has grown.

Myzus persicae [3] = assay: Myzus persicae spray test (Chinese cabbage leaf discs); assay type: in vivo; conditions: application rate 500 g/ha, after 6 days
How it was run: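 Active ingredient was formulated in acetone/DMF and diluted with water containing 1000 ppm emulsifier. Chinese cabbage leaf discs infested with all aphid stages were sprayed, and % kill was scored after 6 days (100% = all aphids dead).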

Meloidogyne incognita = Meloidogyne incognita test; assay type: in vivo; conditions: application rate 20 ppm, formation of galls on lettuce after 14 days
Method: Meloidogyne incognita Test Solvent: 125.0 parts by weight of acetone
To produce a suitable preparation of active ingredient, 1 part by weight of active ingredient is mixed with the stated amount of solvent and the concentrate is diluted with water to the desired concentration.
Vessels are filled with sand, active ingredient solution, an egg/larvae suspension of the southern root-knot nematode (Meloidogyne incognita) and lettuce seeds. The lettuce seeds germinate and the plants develop. The galls develop on the roots.
After 14 days, the nematicidal efficacy in % is determined by the formation of galls. 100% means that no galls were found; 0% means that the number of galls on the treated plants corresponds to the untreated control.

Ctenocephalides felis = Ctenocephalides felis in vitro contact test with adult cat fleas; assay type: in vivo; conditions: application rate 5 μg/cm^2, after 48 h, adult cat fleas dead or moribund
Method: Ctenocephalides felis—In Vitro Contact Tests with Adult Cat Fleas
For the coating of the test tubes, 9 mg of active ingredient are first dissolved in 1 ml of acetone p.a. and then diluted to the desired concentration with acetone p.a. 250 μl of the solution are distributed homogeneously on the inner walls and the base of a 25 ml test tube by turning and rocking on an orbital shaker (rocking rotation at 30 rpm for 2 h). With 900 ppm of active ingredient solution and internal surface area 44.7 cm^2, given homogeneous distribution, an area-based dose of 5 μg/cm^2 is achieved.
After the solvent has evaporated off, the tubes are populated with 5-10 adult cat fleas (Ctenocephalides felis), sealed with a perforated plastic lid and incubated in a horizontal position at room temperature and ambient humidity. After 48 h, efficacy is determined. To this end, the test tubes are stood upright and the fleas are knocked to the base of the tube. Fleas which remain motionless at the base or move in an uncoordinated manner are considered to be dead or moribund.
100% efficacy means that all the fleas were dead or moribund. 0% efficacy means that no fleas were harmed.

Musca domestica = Musca domestica test; assay type: in vivo; conditions: application rate 100 ppm, adult houseflies, after 2 days
Method: Musca domestica Test Solvent: dimethyl sulphoxide
(§2) To produce a suitable active ingredient formulation, 10 mg of active ingredient are mixed with 0.5 ml of dimethyl sulphoxide, and the concentrate is diluted with water to the desired concentration.
Vessels containing a sponge treated with sugar solution and the active ingredient formulation of the desired concentration are populated with 10 adult houseflies (Musca domestica).
After 2 days, the kill in % is determined. 100% means that all of the flies have been killed; 0% means that none of the flies have been killed.

Lucilia cuprina = Lucilia cuprina test; assay type: in vivo; conditions: application rate 100 ppm, L1 larvae, after 2 days
Method: Lucilia cuprina Test Solvent: dimethyl sulphoxide
as §2
About 20 L1 larvae of the Australian sheep blowfly (Lucilia cuprina) are transferred into a test vessel containing minced horsemeat and the active ingredient formulation of the desired concentration.
After 2 days, the kill in % is determined. 100% means that all the larvae have been killed; 0% means that no larvae have been killed.

Boophilus microplus = Boophilus microplus injection test; assay type: in vivo; conditions: application rate 20 μg/animal, assessed after 7 days by laying of fertile eggs
Method: Boophilus microplus—Injection Test Solvent: dimethyl sulphoxide
To produce a suitable active ingredient formulation, 10 mg of active ingredient are mixed with 0.5 ml of solvent and the concentrate is diluted with solvent to the desired concentration.
1 μl of the active ingredient solution is injected into the abdomen of 5 engorged adult female cattle ticks (Boophilus microplus). The animals are transferred into dishes and kept in a climate-controlled room.
Efficacy is assessed after 7 days by laying of fertile eggs. Eggs which are not visibly fertile are stored in a climate-controlled cabinet until the larvae hatch after about 42 days. An efficacy of 100% means that none of the ticks has laid any fertile eggs; 0% means that all the eggs are fertile.

Myzus persicae [4] = assay: Myzus persicae spray test (bell pepper plants); assay type: in vivo; conditions: application rate 100 ppm, after 6 days
Method: Myzus persicae—Spray Test Solvent: 14 parts by weight of dimethylformamide Emulsifier: alkylaryl polyglycol ether
as §1, with “water. If the addition of ammonium salts or/and penetrants is required, these are each added in a concentration of 1000 ppm to the formulation solution.” for “water.”
Bell pepper plants (Capsicum annuum) severely infested with the green peach aphid (Myzus persicae) are treated by spraying with the active ingredient formulation in the desired concentration.
After 6 days, the kill in % is determined. 100% means that all of the aphids have been killed; 0% means that none of the aphids have been killed.

CCCOCC(=O)c1c([O-])n(Cc2cnc(Cl)s2)c2c(C)ccc[n+]12 [Example I-1-097]
efficacy (Myzus persicae [1]): 100% | efficacy (Phaedon cochleariae): 100% | log p [2]: 2.11 | efficacy (Diabrotica balteata): 100% | efficacy (Myzus persicae [3]): 90%

Cc1ccc[n+]2c(C(=O)Cn3ccc(Cl)n3)c([O-])n(Cc3cnc(Cl)s3)c12 [Example I-1-093]
efficacy (Myzus persicae [1]): 100% | efficacy (Phaedon cochleariae): 100% | log p [2]: 2.23

COC(=O)c1c([O-])n(C(C)c2cnc(Cl)s2)c2cccc[n+]12 (stereo not drawn) [Example I-1-262]
efficacy (Phaedon cochleariae): 83% | log p a) [2]: 1.45

O=C(Nc1c(Cl)cccc1Cl)c1c([O-])n(Cc2ccc(Cl)nc2)c2cccc[n+]12 [Example I-1-314]
efficacy (Myzus persicae [1]): 100% | log p a) [2]: 2.59 | nematicidal efficacy (Meloidogyne incognita): 90% | efficacy (Myzus persicae [3]): 100%

O=C(NCC1CC1)c1c([O-])n(Cc2cnc(Cl)s2)c2cccc[n+]12 [Example I-1-143]
efficacy (Ctenocephalides felis): 100% | log p [2]: 1.99 | efficacy (Diabrotica balteata): 100% | nematicidal efficacy (Meloidogyne incognita): 90%

COCC(=O)c1c([O-])n(Cc2cnc(Cl)s2)c2cccc[n+]12 [Example I-1-008, 1-[(2-Chloro-1,3-thiazol-5-yl)methyl]-3-(methoxyacetyl)-1H-imidazo[1,2-a]pyridin-4-ium-2-olate]
pest or weed control at 20 ppm (Myzus persicae [1]; Myzus persicae, 120 h, read-out: efficacy): 100% | efficacy (kill in %) (Musca domestica): 100% | efficacy (kill in %) (Lucilia cuprina): 90% | chromatographic logP [2]: 1.23 | chromatographic logP ([2]; pH 2.7): 1.23 | efficacy (Diabrotica balteata): 100% | efficacy (Boophilus microplus): 100% | efficacy (Myzus persicae [3]): 100%

COCC(=O)c1c([O-])n(Cc2cnc(Cl)s2)c2c(C)ccc[n+]12 [Example I-1-082]
efficacy (Ctenocephalides felis): 100% | efficacy (Myzus persicae [1]): 100% | efficacy (Phaedon cochleariae): 100% | log p [2]: 1.46 | efficacy (Diabrotica balteata): 100% | efficacy (Myzus persicae [3]): 100%

COc1cccc(F)c1NC(=O)c1c([O-])n(Cc2cnc(Cl)s2)c2cccc[n+]12 [Example I-1-323]
efficacy (Myzus persicae [1]): 100% | log p a) [2]: 2.27 | nematicidal efficacy (Meloidogyne incognita): 90%

COc1cnn(CC(=O)c2c([O-])n(Cc3cnc(Cl)s3)c3c(C)ccc[n+]23)c1 [Example I-1-094]
efficacy (Phaedon cochleariae): 100% | log p [2]: 1.75

CCOCC(=O)c1c([O-])n(Cc2cnc(Cl)s2)c2c(C)ccc[n+]12 [Example I-1-083]
efficacy (Myzus persicae [1]): 100% | efficacy (Phaedon cochleariae): 100% | log p [2]: 1.72 | efficacy (Diabrotica balteata): 100% | efficacy (Myzus persicae [3]): 90%

CSCC(=O)c1c([O-])n(Cc2cnc(Cl)s2)c2cccc[n+]12 [Example I-1-034]
efficacy (Myzus persicae [1]): 100% | efficacy (kill in %) (Musca domestica): 80% | efficacy (kill in %) (Lucilia cuprina): 100% | log p [2]: 1.73 | efficacy (Diabrotica balteata): 100% | efficacy (Boophilus microplus): 80% | efficacy (Myzus persicae [3]): 90%

COc1ccc[n+]2c(C(=O)NC3CC3)c([O-])n(Cc3cnc(Cl)s3)c12 [Example I-1-240]
efficacy (Ctenocephalides felis): 100% | efficacy (Myzus persicae [1]): 100% | log p a) [2]: 1.96

O=C(Nc1c(F)cccc1Cl)c1c([O-])n(Cc2ccc(Cl)nc2)c2cccc[n+]12 [Example I-1-316]
efficacy (Myzus persicae [1]): 100% | log p a) [2]: 2.44 | nematicidal efficacy (Meloidogyne incognita): 90% | efficacy (Myzus persicae [3]): 100%

O=C(NC1CC1)c1c([O-])n(Cc2ccc(Cl)nc2)c2cccc[n+]12 [Example I-1-154]
efficacy (Myzus persicae [1]): 100% | efficacy (kill in %) (Myzus persicae [4]): 100% | efficacy (Phaedon cochleariae): 100% | efficacy (kill in %) (Lucilia cuprina): 95% | log p [2]: 1.59 | efficacy (Diabrotica balteata): 80%

Cc1cccc(C)c1NC(=O)c1c([O-])n(Cc2cnc(Cl)s2)c2cccc[n+]12 [Example I-1-321]
efficacy (Myzus persicae [1]): 100% | log p a) [2]: 2.76 | nematicidal efficacy (Meloidogyne incognita): 90%

CC(C)CNC(=O)c1c([O-])n(Cc2cnc(Cl)s2)c2cccc[n+]12 [Example I-1-147]
efficacy (Ctenocephalides felis): 80% | efficacy (Myzus persicae [1]): 100% | efficacy (kill in %) (Myzus persicae [4]): 100% | log p [2]: 2.29 | efficacy (Diabrotica balteata): 100% | nematicidal efficacy (Meloidogyne incognita): 90%

Cc1ccccc1NC(=O)c1c([O-])n(Cc2cnc(Cl)s2)c2cccc[n+]12 [Example I-1-239]
efficacy (Ctenocephalides felis): 100% | efficacy (Myzus persicae [1]): 100% | log p a) [2]: 3.03

Cc1ccc[n+]2c(C(=O)Nc3c(Cl)cccc3Cl)c([O-])n(Cc3cnc(Cl)s3)c12 [Example I-1-277]
efficacy (Myzus persicae [1]): 100% | efficacy (Phaedon cochleariae): 83% | log p a) [2]: 3.11 | efficacy (Diabrotica balteata): 100% | nematicidal efficacy (Meloidogyne incognita): 90%

Cc1ccc[n+]2c(C(=O)Nc3c(F)cccc3Cl)c([O-])n(Cc3cnc(Cl)s3)c12 [Example I-1-276]
efficacy (Myzus persicae [1]): 100% | log p a) [2]: 2.93 | efficacy (Diabrotica balteata): 100% | nematicidal efficacy (Meloidogyne incognita): 90% | efficacy (Myzus persicae [3]): 90%

Cc1ccc(Cn2c([O-])c(C(=O)NC3CC3)[n+]3ccccc23)cn1 [Example I-1-243]
efficacy (Ctenocephalides felis): 100% | efficacy (Myzus persicae [1]): 100% | log p a) [2]: 0.81

CCOCC(=O)c1c([O-])n(Cc2ccc(Cl)nc2)c2c(Cl)ccc[n+]12 [Example I-1-116]
efficacy (Myzus persicae [1]): 100% | log p [2]: 1.78 | nematicidal efficacy (Meloidogyne incognita): 90%
